# Experimental data as given in the supplement of paper PMC5412046.
# Where a name gives a salt, the structure may show the parent alone.
# Experiments:
# [1] = test system: SB.msgc-1; experiment: AC50 for growth inhibition (viability) (log10 M); higher = less potent; settings: SB.msgc-1 (sporadic gastric cancer)
# Outline: (§1)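 Log half-maximal activity concentration reflects viability of patient-derived gastric cancer cells, hereditary or sporadic, normalised to DMSO and fitted with four parameters, with only high-quality curve classes retained. Wells of a 1536 plate held 500 cells and received compound by pintool at 11 threefold dilutions from a final 46 μM. Luminescence from CellTiter-Glo was read on a ViewLux at 48 h.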
# [2] = test system: SB.mhdgc-1; experiment: as above; settings: SB.mhdgc-1 (hereditary c.1380delA CDH1 gastric cancer)
# Outline: as §1
smiles,measurement,setting,value
CCOc1cc(N2CCC(O)CC2)ccc1Nc1ncc2c(n1)N(C)c1ccccc1C(=O)N2C [XMD8-92],AC50 for growth inhibition (log10 M),[1],-5.18
same,AC50 for growth inhibition (log10 M),[2],-5.98
CCNC(=O)C[C@@H]1\N=C(C2=CC=C(Cl)C=C2)/C3=C(C=CC(=C3)OC)[N]4C(=NN=C14)C [I-BET762],AC50 for growth inhibition (log10 M),[1],-5.63
same,AC50 for growth inhibition (log10 M),[2],-6.08
C/C=C1\NC(=O)[C@H]2CSSCC/C=C\[C@H](CC(=O)N[C@H](C(C)C)C(=O)N2)OC(=O)[C@H](C(C)C)NC1=O [Romidepsin],AC50 for growth inhibition (log10 M),[1],-7.83
same,AC50 for growth inhibition (log10 M),[2],-7.63
O=C(NC[C@H](O)CO)c1ccncc1Nc1ccc(I)cc1F [Pimasertib],AC50 for growth inhibition (log10 M),[1],-6.38
same,AC50 for growth inhibition (log10 M),[2],-4.73
O=C(Nc1ncc(SCCN2CCCC2)s1)[C@]1(c2ccc([S+](=O)([O-])C3CC3)cc2)C[C@H]1C1CCCCC1,AC50 for growth inhibition (log10 M),[1],-4.78
same,AC50 for growth inhibition (log10 M),[2],-5.03
Cc1cc(Cl)ccc1OCCCC(=O)NO [Droxinostat],AC50 for growth inhibition (log10 M),[1],-4.83
same,AC50 for growth inhibition (log10 M),[2],-5.98
CCCCc1nc2cc(/C=C/C(=O)NO)ccc2n1CCN(CC)CC [Pracinostat],AC50 for growth inhibition (log10 M),[1],-6.88
same,AC50 for growth inhibition (log10 M),[2],-5.33
CCOC(=O)[C@@H](N)Cc1ccc(-c2cc(O[C@H](c3ccc(Cl)cc3-n3ccc(C)n3)C(F)(F)F)nc(N)n2)cc1.O=C(O)CNC(=O)c1ccccc1 [Telotristat etiprate],AC50 for growth inhibition (log10 M),[1],-5.03
same,AC50 for growth inhibition (log10 M),[2],-4.78
C[C@H](NC(=O)c1sccc1OCc1ccc(Cl)cc1)c1ccccc1,AC50 for growth inhibition (log10 M),[1],-4.73
same,AC50 for growth inhibition (log10 M),[2],-4.98
C[C@@H]1CN[C@H]2[C@@H](C)[C@@]\3(CC[C@H]\4[C@@H]5C/C=C6/C[C@@H](O)CC[C@]6(C)[C@H]5CC4=C3C)O[C@@H]2C1 [Cyclopamine],AC50 for growth inhibition (log10 M),[1],-4.73
same,AC50 for growth inhibition (log10 M),[2],-4.68
COC1=C2C[C@@H](C)C[C@H](OC)[C@H](O)[C@@H](C)/C=C(\C)[C@H](OC(N)=O)[C@@H](OC)/C=C/C=C(\C)C(=O)NC(=CC1=O)C2=O [Geldanamycin],AC50 for growth inhibition (log10 M),[1],-6.43
same,AC50 for growth inhibition (log10 M),[2],-6.58
CN1/C=C(\N=C(NC2=CC=C(C=C2)C(=O)N3CCOCC3)/C1=O)/C4=C(C)C(=CC=C4)NC(=O)C5=CC=C(C=C5)C(C)(C)C [CGI-1746],AC50 for growth inhibition (log10 M),[1],-5.23
same,AC50 for growth inhibition (log10 M),[2],-4.63
Cc1cc(Nc2cc(N3CCN(C)CC3)nc(/C=C/c3ccccc3)n2)n[nH]1,AC50 for growth inhibition (log10 M),[1],-4.27
same,AC50 for growth inhibition (log10 M),[2],-4.32
CCNC(=O)c1cc2c(-c3cc(OCCN4CCCC4)c(Cl)cc3Cl)nc(N)nc2s1,AC50 for growth inhibition (log10 M),[1],-6.38
same,AC50 for growth inhibition (log10 M),[2],-5.53
CC(C)c1cnn2c(NCc3ccccc3)cc(NCCCCCCN)nc12 [BS-181],AC50 for growth inhibition (log10 M),[1],-4.73
same,AC50 for growth inhibition (log10 M),[2],-4.83
CC1(C)CNc2cc(NC(=O)c3cccnc3NCc3ccncc3)ccc21 [Motesanib],AC50 for growth inhibition (log10 M),[1],-5.98
same,AC50 for growth inhibition (log10 M),[2],-7.23
COc1ccc([S+](=O)([O-])Nc2cc(-c3c(O)ccc4ccccc34)c(O)c3ccccc23)cc1 [C-188-9],AC50 for growth inhibition (log10 M),[1],-4.73
same,AC50 for growth inhibition (log10 M),[2],-4.73
Cc1cccc(-c2[nH]c(C(C)(C)C)nc2-c2ccc3c(c2)OCO3)n1,AC50 for growth inhibition (log10 M),[1],-4.88
same,AC50 for growth inhibition (log10 M),[2],-4.83
N#C/C(=C1/Nc2ccccc2S1)c1ccnc(OCc2ccc(CN3CCOCC3)cc2)n1,AC50 for growth inhibition (log10 M),[1],-5.98
same,AC50 for growth inhibition (log10 M),[2],-7.43
Nc1ccc(C(=O)Nc2cccc(-c3nc(N4CCOCC4)c4oc5ncccc5c4n3)c2)cn1,AC50 for growth inhibition (log10 M),[1],-5.18
same,AC50 for growth inhibition (log10 M),[2],-5.38
C#Cc1cccc(Nc2ncnc3cc(OCCOC)c(OCCOC)cc23)c1 [Erlotinib hydrochloride],AC50 for growth inhibition (log10 M),[1],-5.63
same,AC50 for growth inhibition (log10 M),[2],-6.38
CCOC(=O)N1CCN(/[N+]([O-])=N/Oc2cc(O/N=[N+](\[O-])N3CCN(C(=O)OCC)CC3)c([N+](=O)[O-])cc2[N+](=O)[O-])CC1 [Double JS-K],AC50 for growth inhibition (log10 M),[1],-4.63
same,AC50 for growth inhibition (log10 M),[2],-5.03
CCN(CC)CCNC(=O)c1ccc2nc(-c3ccccc3)c(-c3ccc(CN4CCC(n5c(=O)[nH]c6ccccc65)CC4)cc3)nc2c1 [Merck-22-6],AC50 for growth inhibition (log10 M),[1],-4.88
same,AC50 for growth inhibition (log10 M),[2],-5.63
Cc1ccc(NC(=O)c2cccc(N(C)C)c2)cc1NC(=O)c1ccc(O)cc1,AC50 for growth inhibition (log10 M),[1],-5.78
same,AC50 for growth inhibition (log10 M),[2],-6.48
COC(=O)Nc1nc2cc(Sc3ccccc3)ccc2[nH]1 [Fenbendazole],AC50 for growth inhibition (log10 M),[1],-5.53
same,AC50 for growth inhibition (log10 M),[2],-6.63
Cn1c(=O)n(-c2ccc(C(C)(C)C#N)cc2)c2c3cc(-c4cnc5ccccc5c4)ccc3ncc21 [BEZ235],AC50 for growth inhibition (log10 M),[1],-5.33
same,AC50 for growth inhibition (log10 M),[2],-6.88
CC(=O)Nc1ccc([C@H](C)C(=O)Nc2ncc(C(C)C)s2)cc1,AC50 for growth inhibition (log10 M),[1],-5.88
same,AC50 for growth inhibition (log10 M),[2],-7.13
C/C(O)=C(\C#N)C(=O)Nc1ccc(C(F)(F)F)cc1 [Teriflunomide],AC50 for growth inhibition (log10 M),[1],-4.78
same,AC50 for growth inhibition (log10 M),[2],-4.63
Clc1ccc(C2(c3ccc(-c4cn[nH]c4)cc3)CCNCC2)cc1 [AT-7867],AC50 for growth inhibition (log10 M),[1],-4.73
same,AC50 for growth inhibition (log10 M),[2],-4.88
CCC(=O)NC[C@H](Cc1ccc(OCCc2nc(-c3ccccc3)oc2C)cc1)N/C(C)=C\C(=O)c1ccc(C(F)(F)F)cc1 [GW-6471],AC50 for growth inhibition (log10 M),[1],-4.73
same,AC50 for growth inhibition (log10 M),[2],-5.48
C/C=C(/C)C(=O)O[C@H]1C(C)=C2[C@H]([C@@H]1OC(=O)CCCCCCC)[C@@](C)(OC(C)=O)C[C@H](OC(=O)CCC)[C@@]1(O)[C@H]2OC(=O)[C@@]1(C)O [Thapsigargin],AC50 for growth inhibition (log10 M),[1],-7.43
same,AC50 for growth inhibition (log10 M),[2],-6.98
OC[C@H]1O[C@@H]2[C@@H](OC\3=N\C(=N)\C=C/[N@@]23)[C@@H]1O [Cyclocytidine HCl],AC50 for growth inhibition (log10 M),[1],-5.43
same,AC50 for growth inhibition (log10 M),[2],-6.13
C[C@]12CC[C@@H]3c4ccc(O)cc4CC[C@H]3[C@@H]1[C@@H](O)[C@@H](O)[C@@H]2O [Estetrol],AC50 for growth inhibition (log10 M),[1],-4.68
same,AC50 for growth inhibition (log10 M),[2],-4.88
Clc1ccc(C(c2ccccc2Cl)C(Cl)Cl)cc1 (configuration not stated) [Mitotane],AC50 for growth inhibition (log10 M),[1],-4.73
same,AC50 for growth inhibition (log10 M),[2],-4.88
COc1cc([C@@H]2c3cc4c(cc3[C@@H](O)C3COC(=O)C32)OCO4)cc(OC)c1O (some centres not stated) [4-Demethylepipodophyllotoxin],AC50 for growth inhibition (log10 M),[1],-6.63
same,AC50 for growth inhibition (log10 M),[2],-7.38
CC[C@H](NC(=O)[C@H](C)NC)C(=O)N1C[C@@H](O)C[C@H]1Cc1c(-c2[nH]c3cc(F)ccc3c2C[C@@H]2C[C@H](O)CN2C(=O)[C@H](CC)NC(=O)[C@H](C)NC)[nH]c2cc(F)ccc12 [Birinapant],AC50 for growth inhibition (log10 M),[1],-5.53
same,AC50 for growth inhibition (log10 M),[2],-6.23
C[C@@H]1CC[C@@]2(CC[C@]3(C)\C(=C/C[C@@H]4[C@@]5(C)CC[C@H](O)C(C)(C)[C@@H]5CC[C@@]34C)[C@@H]2[C@H]1C)C(O)=O [Ursolic acid],AC50 for growth inhibition (log10 M),[1],-4.47
same,AC50 for growth inhibition (log10 M),[2],-4.67
CC(=O)O/N=C1/C(=C2\C(=O)Nc3cc(Br)ccc32)Nc2ccccc21 [6-Bromoindirubin-3'-acetoxime],AC50 for growth inhibition (log10 M),[1],-4.93
same,AC50 for growth inhibition (log10 M),[2],-5.13
COC[C@H]1OC(=O)C2=COC3=C2[C@@]1(C)\C4=C(\[C@@H]5CC[C@H](O)[C@@]5(C)C[C@H]4OC(C)=O)C3=O [17_-hydroxy Wortmannin],AC50 for growth inhibition (log10 M),[1],-5.58
same,AC50 for growth inhibition (log10 M),[2],-5.53
N[S+](=O)([O-])c1cccc2c1C(=O)c1cccc(O)c1C2=O [LLL-12],AC50 for growth inhibition (log10 M),[1],-6.63
same,AC50 for growth inhibition (log10 M),[2],-6.98
CC(C)(C)NC(=O)[C@@H]1CN(Cc2cccnc2)CCN1C[C@@H](O)C[C@@H](Cc1ccccc1)C(=O)N[C@H]1c2ccccc2C[C@H]1O.O=S(=O)(O)O [Indinavir],AC50 for growth inhibition (log10 M),[1],-4.78
same,AC50 for growth inhibition (log10 M),[2],-6.08
COc1ccc(C(=O)CC2(O)C(=O)Nc3c(Cl)ccc(Cl)c32)cc1 (configuration not stated) [YK-4-279],AC50 for growth inhibition (log10 M),[1],-5.63
same,AC50 for growth inhibition (log10 M),[2],-5.78
CNC(=O)c1ccc(N2C(=S)N(c3ccc(C#N)c(C(F)(F)F)c3)C(=O)C23CCC3)cc1F [RD-162],AC50 for growth inhibition (log10 M),[1],-5.13
same,AC50 for growth inhibition (log10 M),[2],-5.08
CC(=O)Oc1ccccc1C(=O)Nc1ncc([N+](=O)[O-])s1 [Nitazoxanide],AC50 for growth inhibition (log10 M),[1],-4.72
same,AC50 for growth inhibition (log10 M),[2],-4.72
O=C(Cc1ccc(-c2ccc(OCCN3CCOCC3)cc2)cn1)NCc1ccccc1 [KX-01],AC50 for growth inhibition (log10 M),[1],-7.48
same,AC50 for growth inhibition (log10 M),[2],-8.18
CCCCOc1ccc(CC(=O)NO)cc1 [Bufexamac],AC50 for growth inhibition (log10 M),[1],-4.88
same,AC50 for growth inhibition (log10 M),[2],-5.43
NC/1=N/C2=C([NH]C=N2)C(=S)N1 [Tioguanine],AC50 for growth inhibition (log10 M),[1],-5.58
same,AC50 for growth inhibition (log10 M),[2],-5.03
Cc1cn2c(-c3cn[nH]c3)cnc2c(Nc2ccc(C(=O)N3CCNCC3)cc2F)n1,AC50 for growth inhibition (log10 M),[1],-4.83
same,AC50 for growth inhibition (log10 M),[2],-4.98
CC(C)NCC(O)c1ccc(O)c(O)c1 (configuration not stated) [Isoprenaline hydrochloride],AC50 for growth inhibition (log10 M),[1],-4.83
same,AC50 for growth inhibition (log10 M),[2],-5.43
Fc1cc(-c2cccc3ncc(-c4cnn(C5CCNCC5)c4)nc23)cc(F)c1CN1CCOCC1 [NVP-BSK805],AC50 for growth inhibition (log10 M),[1],-4.68
same,AC50 for growth inhibition (log10 M),[2],-5.03
Nc1ncnc2c1c(-c1cnc3[nH]ccc3c1)nn2C1CCCC1 [PP-121],AC50 for growth inhibition (log10 M),[1],-5.38
same,AC50 for growth inhibition (log10 M),[2],-5.78
